The test system of test [1] is MCT1. As to conditions: female SOD1-G93A mice; 5 mg/kg AMD3100; spinal cord (FIG. 4A); vs control.
Text: The control group is set to 100%. Results are mean ±S.E.M, T-test; *p<0.05.
Test [2] has as its system SOD1-G93A mice. In words: Survival (time taken until death) of SOD1-G93A mice. The class given is in vivo. Here is the method: Experimental set-up: 50 day old female SOD1-G93A mice were treated with either 5 mg/kg AMD3100 alone, 896 mg/kg Na-L-lactate alone or a combination of […] AMD3100 and 896 mg/kg Na-L-lactate twice a week, starting at 50 days old (for ALS), until death. All treatments were administered subcutaneously. The mice were weighed once a week following the various treatments and tested for motor function, also once a week. The time taken until death was recorded.
Experimental set-up: 50 day old female SOD1-G93A mice were treated with either 5 mg/kg AMD3100 alone or a complex of 0.25 mg/kg AMD3100+0.08 mg/kg Zinc or 0.125 mg/kg AMD3100+0.04 mg/kg Zinc twice a week, starting at 50 days old until death. All treatments were administered subcutaneously. The mice were weighed once a week following the various treatments and tested for motor function, also once a week. The time taken until death was recorded.
Experimental set-up: 50 day old male SOD1-G93A mice were treated with either 5 mg/kg AMD3100 alone or a complex of 0.5 mg/kg AMD3100+0.17 mg/kg Zinc+896 mg/kg lactate twice a week, starting at 50 days old, till death. All treatments were administered subcutaneously. The time taken until death was recorded.

Test [3] concerns SOD1-G93A mice. As to conditions: SOD1-G93A transgenic mice; previously shown; cited from earlier work.
For test [4], the system named is SOD1-G93A mice. As to conditions: SOD1-G93A transgenic mice; previously shown; cited from earlier work. This is another data set of the same source.
The subject of test [5] is SOD1-G93A mice. As to conditions: SOD1-G93A transgenic mice; previously shown; cited from earlier work. The source holds these as a separate data set.
Test [6] has as its system AP. Description: AP by ELISA in 3×Tg-AD mice. The class given is in vivo. The following applies: membrane fraction, 0.5 mg/kg AMD3100 (+0.17 mg/kg Zn+896 mg/kg lactate), vs PBS. As to the method: Experimental set-up: 9 month old 3×Tg-AD mice were treated with PBS or 0.5 mg/kg AMD3100 or 0.5 mg/kg AMD3100 0.17 mg/kg Zn or 0.5 mg/kg AMD3100+0.17 mg/kg Zn+896 mg/kg lactate once a week. All treatments were administered subcutaneously. After 3 month of treatment, all mice were subjected to Y maze test in order to evaluate their cognitive function. Each mouse was allowed to explore two arms of the Y maze for 5 min, rested for another 5 min, and then explored all 3 arms of the Y maze for another 5 min.

The structures appear in SMILES notation.

On to `c1cc(CN2CCCNCCNCCCNCC2)ccc1CN1CCCNCCNCCCNCC1` [AMD3100, 1,1′-[1,4-phenylenebis(methylene)]bis [1,4,8,11-tetraazacyclotetradecane]], for which the MCT1 levels result in test [1] is recorded as “increase”. Also, the median survival in test [2] (female SOD1-G93A mice, 5 mg/kg AMD3100 s.c. twice a week from 50 days old) amounted to 144 days; in test [2] (male SOD1-G93A mice, 5 mg/kg AMD3100 s.c. twice a week from 50 days old), 140 days. For the same compound, the “disease onset (in words)” value in test [3] is listed as “delayed”. Besides, in test [4], the “motor function (in words)” value is “improved”. Moreover, the “survival (in words)” value in test [5] is on record as “significantly increased”. Further, the “AP change by ELISA” value in test [6] was “Reduction in AP was statistically significant”.
For the compound `C[C@H](O)C(=O)[O-].[Na+]` [lactate, Na-L-lactate], the median survival in test [2] (female SOD1-G93A mice, 896 mg/kg lactate s.c. twice a week from 50 days old) was 148 days.

These data come from patent US20180296551A1, “METHODS AND COMPOSITIONS FOR TREATING NEURODEGENERATIVE DISEASES” (priority 2015, published 2018).
